Measurements published in patent US11040981B2, “Pyrrolotriazine compounds and methods of inhibiting TAM kinases” (Syros Pharmaceuticals, Inc., priority 2017, dated 2021).
pIC50: −log10 of the molar value.

What was measured:
MERTK = target: T1, MERTK (Homo sapiens, UniProt Q12866); test: TR-FRET kinase activity assay, MERTK; format: biochemical; conditions: for pIC50: TR-FRET activity assay, ATP at Km, 60 minutes, read-out: Mer IC50; for FLT3/Mer ratio (FLT3 IC50/Mer IC50): ratio of Mer to FLT3: FLT3 IC50/Mer IC50
T1 sequence (Q12866 21-999): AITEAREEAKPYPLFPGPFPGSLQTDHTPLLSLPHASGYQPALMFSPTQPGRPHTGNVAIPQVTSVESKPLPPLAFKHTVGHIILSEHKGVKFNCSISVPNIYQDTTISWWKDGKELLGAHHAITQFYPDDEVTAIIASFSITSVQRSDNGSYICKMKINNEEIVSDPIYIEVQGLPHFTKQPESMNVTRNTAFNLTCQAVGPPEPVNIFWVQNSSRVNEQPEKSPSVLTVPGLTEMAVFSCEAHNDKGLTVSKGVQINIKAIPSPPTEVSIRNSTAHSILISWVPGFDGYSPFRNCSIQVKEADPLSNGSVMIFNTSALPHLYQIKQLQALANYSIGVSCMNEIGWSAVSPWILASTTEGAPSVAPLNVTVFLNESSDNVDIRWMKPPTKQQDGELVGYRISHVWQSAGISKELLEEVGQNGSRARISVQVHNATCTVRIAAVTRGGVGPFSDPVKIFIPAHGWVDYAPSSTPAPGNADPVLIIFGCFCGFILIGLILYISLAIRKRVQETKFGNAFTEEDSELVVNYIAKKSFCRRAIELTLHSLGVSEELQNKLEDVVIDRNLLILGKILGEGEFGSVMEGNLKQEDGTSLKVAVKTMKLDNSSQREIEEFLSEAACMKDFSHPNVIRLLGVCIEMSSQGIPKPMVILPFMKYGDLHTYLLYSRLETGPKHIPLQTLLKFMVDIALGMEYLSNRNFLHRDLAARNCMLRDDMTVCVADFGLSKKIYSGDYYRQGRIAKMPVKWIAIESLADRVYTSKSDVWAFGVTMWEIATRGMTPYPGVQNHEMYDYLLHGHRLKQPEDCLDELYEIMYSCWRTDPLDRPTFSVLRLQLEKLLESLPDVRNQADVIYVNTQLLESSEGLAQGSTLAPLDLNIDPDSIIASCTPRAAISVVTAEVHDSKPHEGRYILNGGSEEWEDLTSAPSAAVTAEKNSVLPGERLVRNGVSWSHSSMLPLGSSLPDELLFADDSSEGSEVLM
Procedure: (§1) IC50 values for compound inhibition of AXL, FLT3, MERTK and TYRO3 activity were determined by using a TR-FRET activity assay. A polypeptide substrate with a fluorescent label is phosphorylated on a tyrosine by each enzyme, where the now phosphorylated product is bound by a Europium-labeled antibody specific to that phosphorylation site. The proximity between the antibody and the substrate gives a signal known as TR-FRET. As the enzyme is inhibited by compound, less phosphorylated peptide product is made causing a decrease in overall signal.
(§2) Activity assays were performed in a 384-well, small volume, black microplates in an active enzyme volume of 10 μL and final developed volume of 20 μL. Final assay conditions are 50 mM HEPES pH 7.5, 10 mM MgCl2, 1 mM EGTA, 0.01% Brij 35 and 1 mM DTT all at RT. Enzyme, substrate labeled peptide and compound are mixed, and then the reaction is initiated with the addition of ATP at Km concentration for each enzyme. The reaction is allowed to run 60 minutes and then quenched with a 12.5 mM EDTA (ethylenediamine tetraacetic acid) solution. The plate is then developed with the addition of Europium labeled antibody for a final volume of 20 μL and is then incubated for 30 minutes in darkness. Plates are read in a Pherastar plate reader. Data is analyzed in GraphPad PRISM.
(§3) The results of these assays are shown in Table 1, below, wherein “No.” designates compound number (FIG. 1); “A” represents a value of ≤100 nM; “B” a value of >100 nM and ≤1 μM; “C” a value of >1 μM and ≤10 μM; “D” a value of >10 μM; “ND” is not determined. The ratio of Mer to FLT3 is calculated as follows: FLT3 IC50/Mer IC50. “+” represents a ratio of >2.0 and <10; “++” represents a ratio of between 10 and 100; and “+++” represents a ratio of >100.

TYRO3 = target: T2, TYRO3 (Homo sapiens, UniProt Q06418); test: TR-FRET kinase activity assay, TYRO3; format: biochemical; conditions: ATP at Km, 60 minutes
T2 sequence (Q06418 41-890): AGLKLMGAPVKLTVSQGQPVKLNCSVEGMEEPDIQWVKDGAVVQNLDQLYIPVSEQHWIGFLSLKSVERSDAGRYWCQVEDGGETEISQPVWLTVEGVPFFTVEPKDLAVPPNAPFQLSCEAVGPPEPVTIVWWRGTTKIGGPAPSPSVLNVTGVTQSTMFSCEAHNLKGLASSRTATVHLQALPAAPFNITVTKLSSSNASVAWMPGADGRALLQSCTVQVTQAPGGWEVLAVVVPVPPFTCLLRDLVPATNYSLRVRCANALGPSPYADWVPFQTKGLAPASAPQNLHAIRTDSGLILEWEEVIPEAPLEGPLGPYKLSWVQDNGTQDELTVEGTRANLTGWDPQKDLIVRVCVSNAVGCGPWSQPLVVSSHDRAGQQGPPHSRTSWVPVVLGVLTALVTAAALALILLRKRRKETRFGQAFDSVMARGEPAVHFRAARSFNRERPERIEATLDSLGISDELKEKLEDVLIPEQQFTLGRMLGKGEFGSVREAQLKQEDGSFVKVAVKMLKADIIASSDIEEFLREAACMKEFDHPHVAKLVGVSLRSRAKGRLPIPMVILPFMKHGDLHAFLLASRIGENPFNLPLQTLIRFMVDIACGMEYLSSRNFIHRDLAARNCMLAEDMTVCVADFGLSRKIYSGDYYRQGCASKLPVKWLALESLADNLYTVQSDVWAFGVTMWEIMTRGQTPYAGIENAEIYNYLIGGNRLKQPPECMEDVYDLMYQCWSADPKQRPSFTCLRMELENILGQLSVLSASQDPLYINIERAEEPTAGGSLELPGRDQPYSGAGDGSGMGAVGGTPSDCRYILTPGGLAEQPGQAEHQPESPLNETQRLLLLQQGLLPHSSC
Procedure: as §1, §2, §3

| pIC50 (MERTK) | FLT3/Mer ratio (FLT3 IC50/Mer IC50) (MERTK) | pIC50 (TYRO3) | Compound |
| --- | --- | --- | --- |
| ≥ 7.00 | +++ (“+++” represents a ratio of >100) | ≥ 7.00 | COC[C@H](C)Nc1ncc2c(-c3cncc(C#N)c3)cc([C@H]3CC[C@H](O)CC3)n2n1 [Compound 201] |
| ≥ 7.00 | +++ (“+++” represents a ratio of >100) | ≥ 7.00 | COC[C@H](C)Nc1ncc2c(-c3ccn(C)n3)cc([C@H]3CC[C@H](O)CC3)n2n1 [Compound 208] |
| ≥ 7.00 | +++ (“+++” represents a ratio of >100) | ≥ 7.00 | COC[C@H](C)Nc1ncc2c(-c3ccc4c(c3)CC(=O)N4)cc([C@H]3CC[C@H](O)CC3)n2n1 [Compound 251] |
| ≥ 7.00 | +++ (“+++” represents a ratio of >100) | ≥ 7.00 | CC(Nc1ncc2c(-c3ccc(CN4CCOCC4)cc3)cc(C3CCC(O)CC3)n2n1)C(F)(F)F (stereo not drawn) [Compound 202] |
| ≥ 7.00 | +++ (“+++” represents a ratio of >100) | ≥ 7.00 | COC[C@H](C)Nc1ncc2c(-c3ccc(C(=O)N4CCN(C)CC4)nc3)cc([C@H]3CC[C@H](O)CC3)n2n1 [Compound 226] |
| ≥ 7.00 | +++ (“+++” represents a ratio of >100) | ≥ 7.00 | COC[C@H](C)Nc1ncc2c(-c3ccc(CN4CCOCC4)nc3)cc([C@H]3CC[C@H](O)CC3)n2n1 [Compound 230] |
| ≥ 7.00 | +++ (“+++” represents a ratio of >100) | ≥ 7.00 | COC[C@H](C)Nc1ncc2c(-c3ccc(C(=O)N4CCOCC4)nc3)cc([C@H]3CC[C@H](O)CC3)n2n1 [Compound 227] |
| ≥ 7.00 | +++ (“+++” represents a ratio of >100) | ≥ 7.00 | Cc1cc(-c2cc([C@H]3CC[C@H](O)CC3)n3nc(N[C@@H](C)CC(F)(F)F)ncc23)cnn1 [Compound 268] |
| ≥ 7.00 | +++ (“+++” represents a ratio of >100) | ≥ 7.00 | Cc1cc(-c2cc([C@H]3CC[C@H](O)CC3)n3nc(N[C@@H](C)CC(F)(F)F)ncc23)ccn1 [Compound 213] |
| ≥ 7.00 | +++ (“+++” represents a ratio of >100) | ≥ 7.00 | COCC(C)Nc1ncc2c(-c3cccc(C)n3)cc(C3CCC(O)CC3)n2n1 (stereo not drawn) [Compound 253] |
| ≥ 7.00 | +++ (“+++” represents a ratio of >100) | ≥ 7.00 | COC[C@H](C)Nc1ncc2c(-c3cnn(CC(C)(C)O)c3)cc([C@H]3CC[C@H](O)CC3)n2n1 [Compound 264] |
| ≥ 7.00 | +++ (“+++” represents a ratio of >100) | ≥ 7.00 | COC[C@H](C)Nc1ncc2c(-c3cncc(C)c3)cc([C@H]3CC[C@H](O)CC3)n2n1 [Compound 231] |

| Compound | pIC50 (MERTK) | FLT3/Mer ratio (FLT3 IC50/Mer IC50) (MERTK) | pIC50 (TYRO3) |
| --- | --- | --- | --- |
| COC[C@H](C)Nc1ncc2c(-c3cccc(CN4CCC(F)(F)C4)c3)cc([C@H]3CC[C@H](O)CC3)n2n1 [Compound 223] | ≥ 7.00 | +++ (“+++” represents a ratio of >100) | ≥ 7.00 |
| CCCCCC(C)Nc1ncc2c(C3=CCC(C(=O)N4CCOCC4)CC3)cc(C3CCC(O)CC3)n2n1 (mixture of isomers) [Compound 110] | ≥ 7.00 | ++ (“++” represents a ratio of between 10 and 100) | ≥ 7.00 |
| COCC[C@@H](C)Nc1ncc2c(-c3ccc(CN4CCOCC4)cc3)cc([C@H]3CC[C@H](O)CC3)n2n1 [Compound 212] | ≥ 7.00 | ++ (“++” represents a ratio of between 10 and 100) | 6.00 to 7.00 |
| C[C@@H](CC(F)(F)F)Nc1ncc2c(-c3cnn(C4COC4)c3)cc([C@H]3CC[C@H](O)CC3)n2n1 [Compound 269] | ≥ 7.00 | ++ (“++” represents a ratio of between 10 and 100) | ≥ 7.00 |
